Experimental data reported in PMC6355801, “The compound TB47 is highly bactericidal against Mycobacterium ulcerans in a Buruli ulcer mouse model” (Nature Communications, 2019).
In brackets after ≈: the same amount, converted by molar mass. Like-named read-outs stand apart in the source and are kept apart here.

Key:
M. marinum = assay type: cell-based, Mycobacterium marinum
M. ulcerans = assay type: cell-based, Mycobacterium ulcerans
[1] = system: M. ulcerans strains 1059 and 1615; assay: MIC on 7H11 agar plates; assay type: cell-based; conditions: Mycobacterium ulcerans, 2 strains (1059 and 1615)
[2] = system: Mycobacterium bovis BCG Tice; assay type: cell-based; conditions: 1 strain
M. smegmatis = assay: microbe, parasite or virus in culture; assay type: cell-based, Mycobacterium smegmatis
Mycobacterium abscessus = assay: MIC, standard broth dilution assay (CLSI); assay type: cell-based; conditions: 20 clinical isolates
Klebsiella pneumoniae = assay: MIC, standard broth dilution assay (CLSI); assay type: cell-based; conditions: 3 clinical isolates
Acinetobacter baumannii = assay: MIC, standard broth dilution assay (CLSI); assay type: cell-based; conditions: 3 clinical isolates
Staphylococcus aureus = assay: MIC, standard broth dilution assay (CLSI); assay type: cell-based; conditions: 1 clinical isolate
Escherichia coli = assay: MIC, standard broth dilution assay (CLSI); assay type: cell-based; conditions: 5 clinical isolates
Pseudomonas aeruginosa = assay: MIC, standard broth dilution assay (CLSI); assay type: cell-based; conditions: 3 clinical isolates
Enterococcus faecium = assay: MIC, standard broth dilution assay (CLSI); assay type: cell-based; conditions: 1 clinical isolate
Enterococcus faecalis = assay: MIC, standard broth dilution assay (CLSI); assay type: cell-based; conditions: 1 clinical isolate
Salmonella enteriditis = assay: MIC, standard broth dilution assay (CLSI); assay type: cell-based; conditions: 1 clinical isolate
Candida albicans = assay: MIC, standard broth dilution assay (CLSI); assay type: cell-based; conditions: 2 clinical isolates
[3] = system: most of the clinical strains; assay: MIC, standard broth dilution assay (CLSI), summary for clinical strains; assay type: cell-based
M. ulcerans (AlMu) = assay: Time kill assay and CFU-based MBC in liquid culture; assay type: cell-based, Mycobacterium ulcerans
Method: Serial dilutions of drug-containing solutions and autoluminescent mycobacteria broth culture (OD600 of 0.3 to 1.0) were prepared. RLU counts from the same batch of triplicate samples were measured according to the designed time points. Ninety-six-well plates were measured as rendering the amount of light by using a Veritas™ Microplate Luminometer Operating Manual (Turner BioSystems). MIClux was determined as the lowest concentration that can inhibit > 90% RLUs compared with that from the untreated controls[6],[18]. The time-killing curves and MIClux of autoluminescent strains were determined by detecting RLUs from these samples. For M. ulcerans and M. marinum strains, the incubation time for MIClux reading was 7 days and 3 days, respectively. The minimum bactericidal concentration (MBC) was defined as the lowest concentration of drug that killed ≥ 99% of the CFU compared with the CFU count of the initial inoculum used for the liquid activity assays, which was adopted from reference. […] The concentrations used were twofold series of dilutions for this purpose. The incubation time for RLU reading was 14 days for the MBD experiment and the light from each 1.5 mL tube containing total 500 μL culture was detected using Promega GloMax 20/20n. […] The concentrations used were fivefold series of dilutions for this purpose. Each above experiment was performed in triplicate (three independent experiments) or more by independent persons and from three or more independent cultures. The representative results are shown.

THP-1 cell = assay: Cytotoxicity; assay type: cell-based
hERG = hERG (Homo sapiens, UniProt Q12809); assay: hERG inhibition; assay type: biochemical
[4] = Oral tolerability in mice; assay type: in vivo
[5] = Long-term administration study in rats; assay type: in vivo; conditions: 10, 30, or 100 mg kg^−1 orally daily for 30 days, male and female rats
[6] = parameters: species or system BALB/c mice; conditions: mouse, in vivo
Method: BALB/c mice were given 2 mg kg^−1 TB47 intravenously or 10 mg kg^−1 orally. […] Footpads and lung tissues were collected at 6, 12, 24, and 48 h post-dose for oral group. After extraction and centrifuge at 4 °C, TB47 concentrations were determined by Liquid Chromatograph-Mass Spectrometer (LC-MS).

CYP 1A2 = CYP 1A2 (Homo sapiens, UniProt P05177); assay: CYP inhibition; assay type: in vitro ADME
CYP 2C19 = CYP 2C19 (Homo sapiens, UniProt P33261); assay type: in vitro ADME; conditions: read-out: CYP Inhibition (IC50)
CYP 2C9 = CYP 2C9 (Homo sapiens, UniProt P11712); assay: CYP inhibition; assay type: in vitro ADME
CYP 2D6 = CYP 2D6 (Homo sapiens, UniProt P10635); assay type: in vitro ADME; conditions: read-out: CYP Inhibition (IC50)
[7] = assay type: in vitro ADME, Human
From the text: (§1) Supplement 41467_2019_8464_MOESM1_ESM.docx, table 4: Table 2-3 Metabolic stability | column: T1/2 (min); Clint In Vitro (mL min^-1 gprot^-1); Clint In Vivo Extpl (mL min^-1); Clint Hep In Vivo Extpl (mL min^-1); Stability

[8] = assay type: in vitro ADME, Rat
From the text: as §1

[9] = assay type: in vitro ADME, Mouse
From the text: as §1

[10] = assay type: in vitro ADME, Monkey
From the text: as §1

[11] = assay type: in vitro ADME, Dog
From the text: as §1

CYP 3A4 = CYP 3A4 (Homo sapiens, UniProt P08684); conditions: read-out: CYP Inhibition (IC50)
[12] = not told

Sequence of CYP 3A4 (P08684 whole entry): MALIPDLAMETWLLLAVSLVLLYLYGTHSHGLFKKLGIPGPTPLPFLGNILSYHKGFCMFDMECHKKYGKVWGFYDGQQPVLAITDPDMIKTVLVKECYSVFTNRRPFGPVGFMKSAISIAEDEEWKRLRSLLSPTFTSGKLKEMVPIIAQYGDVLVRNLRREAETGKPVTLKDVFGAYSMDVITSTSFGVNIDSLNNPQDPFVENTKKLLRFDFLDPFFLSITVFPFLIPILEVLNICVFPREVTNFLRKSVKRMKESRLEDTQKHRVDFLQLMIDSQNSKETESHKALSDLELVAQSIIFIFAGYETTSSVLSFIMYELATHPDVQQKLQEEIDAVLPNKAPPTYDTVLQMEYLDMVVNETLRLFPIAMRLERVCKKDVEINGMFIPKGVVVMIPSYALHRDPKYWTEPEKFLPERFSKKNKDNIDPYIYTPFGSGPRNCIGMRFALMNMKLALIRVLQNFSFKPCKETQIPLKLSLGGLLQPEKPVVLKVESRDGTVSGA
Sequence of hERG (Q12809 whole entry): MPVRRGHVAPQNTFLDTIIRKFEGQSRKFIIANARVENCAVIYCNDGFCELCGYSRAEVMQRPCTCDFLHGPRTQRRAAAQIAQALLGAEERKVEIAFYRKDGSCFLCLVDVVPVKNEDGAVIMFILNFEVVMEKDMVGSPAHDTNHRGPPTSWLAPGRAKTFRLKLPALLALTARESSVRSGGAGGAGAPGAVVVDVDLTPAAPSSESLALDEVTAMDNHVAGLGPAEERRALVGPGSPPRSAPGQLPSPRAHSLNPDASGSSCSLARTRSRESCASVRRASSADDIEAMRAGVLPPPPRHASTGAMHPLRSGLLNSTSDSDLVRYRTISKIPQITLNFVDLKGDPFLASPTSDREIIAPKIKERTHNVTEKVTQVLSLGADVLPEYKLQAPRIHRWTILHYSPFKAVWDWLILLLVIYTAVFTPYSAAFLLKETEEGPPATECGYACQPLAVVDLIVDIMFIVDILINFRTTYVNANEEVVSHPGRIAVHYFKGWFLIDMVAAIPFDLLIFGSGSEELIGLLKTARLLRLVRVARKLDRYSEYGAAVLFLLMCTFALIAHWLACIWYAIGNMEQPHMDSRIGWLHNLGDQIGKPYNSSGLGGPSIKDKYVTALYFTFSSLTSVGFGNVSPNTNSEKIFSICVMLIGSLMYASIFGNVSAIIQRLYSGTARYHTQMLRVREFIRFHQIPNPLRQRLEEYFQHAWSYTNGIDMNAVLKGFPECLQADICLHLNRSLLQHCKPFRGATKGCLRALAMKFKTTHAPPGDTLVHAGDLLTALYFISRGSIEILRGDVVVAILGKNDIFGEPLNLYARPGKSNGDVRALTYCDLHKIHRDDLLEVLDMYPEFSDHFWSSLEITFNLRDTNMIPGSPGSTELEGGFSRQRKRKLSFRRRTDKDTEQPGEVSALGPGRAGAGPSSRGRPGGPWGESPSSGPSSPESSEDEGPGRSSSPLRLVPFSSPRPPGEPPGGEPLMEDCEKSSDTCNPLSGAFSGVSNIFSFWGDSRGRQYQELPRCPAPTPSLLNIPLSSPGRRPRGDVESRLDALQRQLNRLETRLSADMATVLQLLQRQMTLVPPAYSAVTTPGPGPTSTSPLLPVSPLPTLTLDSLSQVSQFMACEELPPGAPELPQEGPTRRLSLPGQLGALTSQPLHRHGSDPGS
Sequence of CYP 2C19 (P33261 whole entry): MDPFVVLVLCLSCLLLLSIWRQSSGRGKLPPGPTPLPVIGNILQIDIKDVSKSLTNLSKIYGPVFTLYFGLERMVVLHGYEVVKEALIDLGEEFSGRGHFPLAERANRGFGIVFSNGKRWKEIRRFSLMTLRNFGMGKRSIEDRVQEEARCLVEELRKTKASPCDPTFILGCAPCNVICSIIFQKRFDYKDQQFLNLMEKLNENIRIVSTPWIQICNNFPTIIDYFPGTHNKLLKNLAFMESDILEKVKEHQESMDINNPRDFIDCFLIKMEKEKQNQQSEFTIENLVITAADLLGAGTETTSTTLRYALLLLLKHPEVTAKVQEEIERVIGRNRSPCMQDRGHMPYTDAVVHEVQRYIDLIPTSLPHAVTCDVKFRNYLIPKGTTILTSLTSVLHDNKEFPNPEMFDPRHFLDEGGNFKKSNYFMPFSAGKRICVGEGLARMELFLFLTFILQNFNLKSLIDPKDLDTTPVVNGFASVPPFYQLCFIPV
Sequence of CYP 2D6 (P10635 whole entry): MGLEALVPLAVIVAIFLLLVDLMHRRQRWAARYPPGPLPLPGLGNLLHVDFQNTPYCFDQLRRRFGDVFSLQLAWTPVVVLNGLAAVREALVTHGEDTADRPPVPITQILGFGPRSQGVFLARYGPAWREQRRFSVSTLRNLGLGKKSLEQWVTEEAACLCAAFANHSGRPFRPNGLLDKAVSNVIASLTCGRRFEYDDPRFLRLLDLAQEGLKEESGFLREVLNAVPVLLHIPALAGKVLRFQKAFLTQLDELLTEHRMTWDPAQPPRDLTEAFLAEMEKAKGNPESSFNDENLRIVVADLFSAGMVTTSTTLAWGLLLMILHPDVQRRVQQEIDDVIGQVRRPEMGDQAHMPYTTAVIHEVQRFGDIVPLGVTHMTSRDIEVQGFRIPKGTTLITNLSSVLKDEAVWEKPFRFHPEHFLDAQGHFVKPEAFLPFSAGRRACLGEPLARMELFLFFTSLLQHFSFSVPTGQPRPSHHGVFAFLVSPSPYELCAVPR
Sequence of CYP 1A2 (P05177 whole entry): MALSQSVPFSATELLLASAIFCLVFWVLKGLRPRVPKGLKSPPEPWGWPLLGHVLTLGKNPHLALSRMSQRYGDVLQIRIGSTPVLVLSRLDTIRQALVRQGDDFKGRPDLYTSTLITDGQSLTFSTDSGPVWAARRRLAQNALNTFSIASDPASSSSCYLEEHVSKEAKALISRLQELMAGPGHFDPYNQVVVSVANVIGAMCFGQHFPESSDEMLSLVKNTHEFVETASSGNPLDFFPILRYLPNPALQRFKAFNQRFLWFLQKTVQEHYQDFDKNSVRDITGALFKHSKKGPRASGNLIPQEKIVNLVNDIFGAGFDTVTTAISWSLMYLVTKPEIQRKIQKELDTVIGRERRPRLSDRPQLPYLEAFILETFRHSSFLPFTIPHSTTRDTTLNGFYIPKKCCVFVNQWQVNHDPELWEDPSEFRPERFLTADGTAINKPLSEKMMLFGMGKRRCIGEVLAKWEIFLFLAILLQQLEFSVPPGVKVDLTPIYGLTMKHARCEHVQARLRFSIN
Sequence of CYP 2C9 (P11712 whole entry): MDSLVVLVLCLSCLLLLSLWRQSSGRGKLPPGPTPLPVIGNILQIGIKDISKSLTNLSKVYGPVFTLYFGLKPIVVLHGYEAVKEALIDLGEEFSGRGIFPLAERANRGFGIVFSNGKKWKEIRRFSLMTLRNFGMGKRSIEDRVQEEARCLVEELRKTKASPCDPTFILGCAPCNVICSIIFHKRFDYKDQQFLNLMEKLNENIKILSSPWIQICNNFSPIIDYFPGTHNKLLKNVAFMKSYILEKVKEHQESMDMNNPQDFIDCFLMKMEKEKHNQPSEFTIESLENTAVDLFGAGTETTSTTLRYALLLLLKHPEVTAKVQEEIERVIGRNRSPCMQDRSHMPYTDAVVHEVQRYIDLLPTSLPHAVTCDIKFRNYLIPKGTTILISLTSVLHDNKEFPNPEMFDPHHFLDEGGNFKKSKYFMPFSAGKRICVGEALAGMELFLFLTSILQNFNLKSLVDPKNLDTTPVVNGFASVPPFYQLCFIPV

SMILES: CO[C@H]1/C=C/O[C@@]2(C)Oc3c(C)c(O)c4c(O)c(c(/C=N/N5CCN(C)CC5)c(O)c4c3C2=O)NC(=O)/C(C)=C\C=C\[C@H](C)[C@H](O)[C@@H](C)[C@@H](O)[C@@H](C)[C@H](OC(C)=O)[C@@H]1C [RIF, rifampin]
- MIClux (M. marinum; M. marinum Wild-type (Autoluminescent strain)): 0.25 to 1.0 µg/mL
- MIClux (M. marinum; M. marinum Wild-type:: qcrB^WT, over-expression of wild-type qcrB): 0.25 to 1.0 µg/mL
- MIClux (M. marinum; M. marinum Wild-type:: vector (empty plasmid)): 0.25 to 1.0 µg/mL
- MIClux (M. ulcerans; M. ulcerans Wild-type (AlMu 1059)): 0.06 to 0.25 µg/mL
- MIClux (M. ulcerans; M. ulcerans Wild-type:: qcrB^WT, over-expression of wild-type qcrB): 0.06 to 0.25 µg/mL
- MIClux (M. ulcerans; M. ulcerans Wild-type:: vector (empty plasmid)): 0.06 to 0.25 µg/mL

SMILES: COc1ccn2nc(C)c(C(=O)NCc3ccc(N4CCC(c5ccc(OC(F)(F)F)cc5)CC4)cc3)c2c1 [TB47]
- MIC (M. marinum; Mycobacterium marinum, 1 strain): 0.001 to 0.008 mg/L
- MIC [1]: 0.0016 mg/L (≈ 0.00297 µM)
- MIC [2]: 0.003 mg/L (≈ 0.00557 µM)
- MIC (M. smegmatis; Mycobacterium smegmatis, 1 strain): 50 mg/L (≈ 92.8 µM)
- MIC (Mycobacterium abscessus): >128 mg/L
- MIC (Klebsiella pneumoniae): >128 mg/L
- MIC (Acinetobacter baumannii): >128 mg/L
- MIC (Staphylococcus aureus): >128 mg/L
- MIC (Escherichia coli): >128 mg/L
- MIC (Pseudomonas aeruginosa): >128 mg/L
- MIC (Enterococcus faecium): >128 mg/L
- MIC (Enterococcus faecalis): >128 mg/L
- MIC (Salmonella enteriditis): >128 mg/L
- MIC (Candida albicans): >128 mg/L
- MICs [3]: > 128 µg/mL
- bactericidal activity compared with 0.2 µg mL^−1 rifampin (M. ulcerans (AlMu); TB47 at 0.008 µg mL^−1 or higher, time kill assay): more potent
- minimum bactericidal concentration (MBC) (M. ulcerans (AlMu); killed ≥ 99% of CFU of the initial inoculum): 0.0064 mg/L (≈ 0.0119 µM)
- concentration demonstrating bactericidal activity (M. ulcerans (AlMu); standard time kill assay, AlMu in liquid culture): ≥ 0.0016 µg/mL
- IC50 (THP-1 cell): 50 µM
- IC50 (hERG): > 30 µM
- tolerability ([4]; oral 200 mg kg^−1 daily for 4 weeks, mice): well tolerated
- tolerability ([4]; single oral administration of 2000 mg kg^−1, mice): well tolerated
- tolerability [5]: well tolerated without any meaningful clinical signs of toxicity
- bioavailability [6]: 38.1%
- MRT(0-t) ([6]; iv, 2 mg/kg): 14.7 h
- MRT(0-∞) ([6]; iv, 2 mg/kg): 22.3 h
- t 1/2z ([6]; iv, 2 mg/kg): 17.7 h
- MRT(0-t) ([6]; po, 10 mg/kg): 20.2 h
- MRT(0-∞) ([6]; po, 10 mg/kg): 52.0 h
- t 1/2z ([6]; po, 10 mg/kg): 35.6 h
- IC50 (CYP 1A2): > 10 µM
- IC50 (CYP 2C19): > 10 µM
- IC50 (CYP 2C9): > 10 µM
- IC50 (CYP 2D6): > 10 µM
- Stability [7]: High
- Clint Hep In Vivo Extpl ([7]; human): 0.0 mL/min
- Clint In Vitro ([7]; human): 0.0 mL min^-1 gprot^-1
- Clint In Vivo Extpl ([7]; human): 0.0 mL/min
- T1/2 ([7]; human): Stable
- Stability [8]: High
- Clint Hep In Vivo Extpl ([8]; rat): 5.4 mL/min
- Clint In Vitro ([8]; rat): 16.5 mL min^-1 gprot^-1
- Clint In Vivo Extpl ([8]; rat): 7.4 mL/min
- T1/2 ([8]; rat): 2.13 h
- Stability [9]: High
- Clint Hep In Vivo Extpl ([9]; mouse): 0.8 mL/min
- Clint In Vitro ([9]; mouse): 16.5 mL min^-1 gprot^-1
- Clint In Vivo Extpl ([9]; mouse): 1.1 mL/min
- T1/2 ([9]; mouse): 2.12 h
- Stability [10]: High
- Clint Hep In Vivo Extpl ([10]; monkey): 0.1 mL/min
- Clint In Vitro ([10]; monkey): 0.0 mL min^-1 gprot^-1
- Clint In Vivo Extpl ([10]; monkey): 0.1 mL/min
- T1/2 ([10]; monkey): 1555 h
- Stability [11]: High
- Clint Hep In Vivo Extpl ([11]; dog): 17.1 mL/min
- Clint In Vitro ([11]; dog): 3.5 mL min^-1 gprot^-1
- Clint In Vivo Extpl ([11]; dog): 19.0 mL/min
- T1/2 ([11]; dog): 9.97 h
- IC50 (VERO cell): > 100 µM
- IC50 (CYP 3A4; 3A4-Midazolam): > 10 µM
- IC50 (CYP 3A4; 3A4-Testerone): > 10 µM
- Conclusion: P-gp substrate [12]: Not P-gp substrate
- Conclusion: permeability [12]: High permeability
- Efflux Ratio [12]: 1.07

SMILES: NNC(=O)c1ccncc1 [isoniazid]
- MIC (M. smegmatis; MsmΔcydAB): 4 mg/L (≈ 29.2 µM)
- MIC (M. smegmatis; MsmΔcydAB::cydAB^Mtb): 4 mg/L (≈ 29.2 µM)
- MIC (M. smegmatis; MsmΔcydAB::cydAB^Mu): 4 mg/L (≈ 29.2 µM)
- MIC (M. smegmatis; Mycolicibacterium smegmatis): 4 mg/L (≈ 29.2 µM)
